In patent US20230085307A1, “PYRIDAZINONE COMPOUND AND HERBICIDE” (NISSAN CHEMICAL CORPORATION, priority 2019, published 2023):

How the values were obtained:
redroot pigweed [1] = assay: Test Example 4: herbicidal effect by soil treatment (Table 19, symbol N); type: in vivo, redroot pigweed (Amaranthus retroflexus); conditions: AAH 320 g/ha
Summary of the method: (§1)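 Three weeks of greenhouse growth at 25° C. to 30° C. followed a uniform surface spray of water-diluted emulsion at a predetermined herbicide amount. Seeds had been sown beforehand under about 1.5 cm of sterilized diluvial soil. Grading followed criteria set out in an earlier test.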

chickweed [2] = assay: Test Example 4: herbicidal effect by soil treatment (Table 19, symbol P); type: in vivo, common chickweed (Stellaria media); conditions: AAH 320 g/ha
Excerpt: (§2) [Test Example 4] Herbicidal Effect Test by Soil Treatment
(§3) Sterilized diluvial soil was placed in a plastic box having a length of 21 cm, a width of 13 cm, and a depth of 7 cm. The seeds of each of southern crabgrass, green foxtail, barnyard grass, wild oat, blackgrass, Italian ryegrass, windgrass, velvetleaf, redroot pigweed, lambsquarters, chickweed, false cleavers, persian speedwell, corn, soybean, rice, wheat, beet, and rapeseed were sowed in a spot-like manner and covered with the soil having a thickness of about 1.5 cm. Subsequently, the emulsion agent of the compound of the present invention prepared according to Formulation Example 2 was diluted with water so as to achieve a predetermined herbicide amount, and the diluted emulsion agent was uniformly applied to the surface of the soil with a small-sized spray. The plastic box was placed in a greenhouse at 25° C. to 30° C. for growth of the plants. Three weeks after the herbicide application, the effect of the herbicide on each plant was evaluated according to the criteria of Test Example 1.

windgrass [3] = assay: Test Example 4: herbicidal effect by soil treatment (Table 19, symbol L); type: in vivo, windgrass (Apera spica-venti); conditions: AAH 320 g/ha
Excerpt: as §2, §3

Italian ryegrass [4] = assay: Test Example 4: herbicidal effect by soil treatment (Table 19, symbol K); type: in vivo, Italian ryegrass (Lolium multiflorum); conditions: AAH 320 g/ha
Excerpt: as §2, §3

redroot pigweed [5] = assay: Test Example 5: herbicidal effect by foliage application, plastic box (Table 20, symbol N); type: in vivo, redroot pigweed (Amaranthus retroflexus); conditions: foliage application, AAH 320 g/ha, three weeks after application
Summary of the method: (§4)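 Plants sown in sterilized diluvial soil and grown 14 days in a greenhouse at 25° C to 30° C, then sprayed on the foliage with the compound's emulsion diluted in water to a predetermined herbicide amount. Injury to weeds and crops scored three weeks after application on a visual rating scale.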

southern crabgrass [6] = assay: Test Example 4: herbicidal effect by soil treatment (Table 19, symbol F); type: in vivo, southern crabgrass (Digitaria ciliaris); conditions: AAH 320 g/ha
Summary of the method: as §1

green foxtail [7] = assay: Test Example 5: herbicidal effect by foliage application, plastic box (Table 20, symbol G); type: in vivo, green foxtail (Setaria viridis); conditions: foliage application, AAH 320 g/ha, three weeks after application
Summary of the method: as §4

Chinese sprangletop = assay: Test Example 3: herbicidal effect by foliage application, Wagner pot (Table 18, symbol D); type: in vivo, chinese sprangletop (Leptochloa chinensis); conditions: 320 g/ha
Summary of the method: (§5)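 Plants were sown in alluvial soil held under 0.1–0.5 cm standing water and grown 14 days in a greenhouse at 25–30 °C. An emulsifiable formulation, water-diluted to the set dose, was then sprayed onto the foliage, and effects were scored three weeks later using previously defined criteria.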

lambsquarters [8] = assay: Test Example 5: herbicidal effect by foliage application, plastic box (Table 20, symbol O); type: in vivo, lambsquarters (Chenopodium album); conditions: foliage application, AAH 320 g/ha, three weeks after application
Summary of the method: as §4

barnyard grass [9] = assay: Test Example 3: herbicidal effect by foliage application, Wagner pot (Table 18, symbol H); type: in vivo, barnyard grass (Echinochloa crus-galli); conditions: 320 g/ha
Summary of the method: as §5

wild oat [10] = assay: Test Example 5: herbicidal effect by foliage application, plastic box (Table 20, symbol I); type: in vivo, wild oat (Avena fatua); conditions: foliage application, AAH 320 g/ha, three weeks after application
Summary of the method: as §4

blackgrass [11] = assay: Test Example 4: herbicidal effect by soil treatment (Table 19, symbol J); type: in vivo, blackgrass (Alopecurus myosuroides); conditions: AAH 320 g/ha
Summary of the method: as §1

chickweed [12] = assay: Test Example 5: herbicidal effect by foliage application, plastic box (Table 20, symbol P); type: in vivo, common chickweed (Stellaria media); conditions: foliage application, AAH 320 g/ha, three weeks after application
Summary of the method: as §4

velvetleaf [13] = assay: Test Example 4: herbicidal effect by soil treatment (Table 19, symbol M); type: in vivo, velvetleaf (Abutilon theophrasti); conditions: AAH 320 g/ha
Summary of the method: as §1

windgrass [14] = assay: Test Example 5: herbicidal effect by foliage application, plastic box (Table 20, symbol L); type: in vivo, windgrass (Apera spica-venti); conditions: foliage application, AAH 320 g/ha, three weeks after application
Summary of the method: as §4

barnyard grass [15] = assay: Test Example 4: herbicidal effect by soil treatment (Table 19, symbol H); type: in vivo, barnyard grass (Echinochloa crus-galli); conditions: AAH 320 g/ha
Summary of the method: as §1

rice flat sedge = assay: Test Example 3: herbicidal effect by foliage application, Wagner pot (Table 18, symbol E); type: in vivo, rice flat sedge (Cyperus iria); conditions: 320 g/ha
Summary of the method: as §5

wild oat [16] = assay: Test Example 4: herbicidal effect by soil treatment (Table 19, symbol I); type: in vivo, wild oat (Avena fatua); conditions: AAH 320 g/ha
Summary of the method: as §1

green foxtail [17] = assay: Test Example 4: herbicidal effect by soil treatment (Table 19, symbol G); type: in vivo, green foxtail (Setaria viridis); conditions: AAH 320 g/ha
Summary of the method: as §1

lambsquarters [18] = assay: Test Example 4: herbicidal effect by soil treatment (Table 19, symbol O); type: in vivo, lambsquarters (Chenopodium album); conditions: AAH 320 g/ha
Summary of the method: as §1

velvetleaf [19] = assay: Test Example 5: herbicidal effect by foliage application, plastic box (Table 20, symbol M); type: in vivo, velvetleaf (Abutilon theophrasti); conditions: foliage application, AAH 320 g/ha, three weeks after application
Summary of the method: as §4

blackgrass [20] = assay: Test Example 5: herbicidal effect by foliage application, plastic box (Table 20, symbol J); type: in vivo, blackgrass (Alopecurus myosuroides); conditions: foliage application, AAH 320 g/ha, three weeks after application
Summary of the method: as §4

persian speedwell = assay: Test Example 5: herbicidal effect by foliage application, plastic box (Table 20, symbol R); type: in vivo, Persian speedwell (Veronica persica); conditions: foliage application, AAH 320 g/ha, three weeks after application
Summary of the method: as §4

Italian ryegrass [21] = assay: Test Example 5: herbicidal effect by foliage application, plastic box (Table 20, symbol K); type: in vivo, Italian ryegrass (Lolium multiflorum); conditions: foliage application, AAH 320 g/ha, three weeks after application
Summary of the method: as §4

southern crabgrass [22] = assay: Test Example 5: herbicidal effect by foliage application, plastic box (Table 20, symbol F); type: in vivo, southern crabgrass (Digitaria ciliaris); conditions: foliage application, AAH 320 g/ha, three weeks after application
Summary of the method: as §4

barnyard grass [23] = assay: Test Example 5: herbicidal effect by foliage application, plastic box (Table 20, symbol H); type: in vivo, barnyard grass (Echinochloa crus-galli); conditions: foliage application, AAH 320 g/ha, three weeks after application
Summary of the method: as §4

Cc1nn(C)c(=O)c(-c2c(-c3ccc([Si](C)(C)C)cc3)sc3ccccc23)c1O [1-153]
N: redroot pigweed, herbicidal effect rating (redroot pigweed [1]): 3 (Herbicidal rate of 40% or more and less than 70%) | P: chickweed, herbicidal effect rating (chickweed [2]): 0 (Herbicidal rate of 5% or less (almost no effect)) | L: windgrass, herbicidal effect rating (windgrass [3]): 0 (Herbicidal rate of 5% or less (almost no effect)) | K: Italian ryegrass, herbicidal effect rating (Italian ryegrass [4]): 0 (Herbicidal rate of 5% or less (almost no effect)) | N: redroot pigweed, herbicidal effect (redroot pigweed [5]): 5 (Herbicidal rate of 90% or more (almost completely withered)) | F: southern crabgrass, herbicidal effect rating (southern crabgrass [6]): 2 (Herbicidal rate of 20% or more and less than 40%) | G: green foxtail, herbicidal effect (green foxtail [7]): 3 (Herbicidal rate of 40% or more and less than 70%) | herbicidal effect on D (Chinese sprangletop), rating 0-5 (Chinese sprangletop): 2 (Herbicidal rate of 20% or more and less than 40%) | O: lambsquarters, herbicidal effect (lambsquarters [8]): 4 (Herbicidal rate of 70% or more and less than 90%) | herbicidal effect on H (barnyard grass), rating 0-5 (barnyard grass [9]): 4 (Herbicidal rate of 70% or more and less than 90%) | I: wild oat, herbicidal effect (wild oat [10]): 0 (Herbicidal rate of 5% or less (almost no effect)) | J: blackgrass, herbicidal effect rating (blackgrass [11]): 0 (Herbicidal rate of 5% or less (almost no effect)) | P: chickweed, herbicidal effect (chickweed [12]): 0 (Herbicidal rate of 5% or less (almost no effect)) | M: velvetleaf, herbicidal effect rating (velvetleaf [13]): 0 (Herbicidal rate of 5% or less (almost no effect)) | L: windgrass, herbicidal effect (windgrass [14]): 0 (Herbicidal rate of 5% or less (almost no effect)) | H: barnyard grass, herbicidal effect rating (barnyard grass [15]): 0 (Herbicidal rate of 5% or less (almost no effect)) | herbicidal effect on E (rice flat sedge), rating 0-5 (rice flat sedge): 3 (Herbicidal rate of 40% or more and less than 70%) | I: wild oat, herbicidal effect rating (wild oat [16]): 0 (Herbicidal rate of 5% or less (almost no effect)) | G: green foxtail, herbicidal effect rating (green foxtail [17]): 3 (Herbicidal rate of 40% or more and less than 70%) | O: lambsquarters, herbicidal effect rating (lambsquarters [18]): 5 (Herbicidal rate of 90% or more (almost completely withered)) | M: velvetleaf, herbicidal effect (velvetleaf [19]): 2 (Herbicidal rate of 20% or more and less than 40%) | J: blackgrass, herbicidal effect (blackgrass [20]): 0 (Herbicidal rate of 5% or less (almost no effect)) | R: persian speedwell, herbicidal effect (persian speedwell): 5 (Herbicidal rate of 90% or more (almost completely withered)) | K: Italian ryegrass, herbicidal effect (Italian ryegrass [21]): 0 (Herbicidal rate of 5% or less (almost no effect)) | F: southern crabgrass, herbicidal effect (southern crabgrass [22]): 0 (Herbicidal rate of 5% or less (almost no effect)) | H: barnyard grass, herbicidal effect (barnyard grass [23]): 0 (Herbicidal rate of 5% or less (almost no effect))
